Laboratory results: patent publication US20220378046A1, “EFFECTS OF NF-kB SIGNALING INHIBITORS ON BED BUG RESISTANCE TO ORALLY PROVISIONED ENTOMOPATHOGENIC BACTERIA” (South Dakota Board of Regents, priority 2021, published 2022)
Read-outs that look alike come from different tables or passages of the source.

How the values were obtained:
Pseudomonas entomophila = assay: Direct effects of NF-kB signaling inhibitors on growth of P. entomophila cultures (OD600); assay type: cell-based; conditions: 10 μg/mL; LB medium; shaken overnight at room temperature
Description: (§1) The effects of NF-kB signaling inhibitors were further assessed on growth of bacterial entomopathogen cultures. Two bacterial entomopathogens were used in the present example. The Gram-positive bacterium B. thuringiensis israelensis was obtained from Carolina Biological Supply (Burlington, N.C., USA). This bacterium was investigated due to its potential activity against bed bugs when ingested. The Gram-negative bacterium P. entomophila was obtained from the German Collection of Microorganisms and Cell Cultures (DSMZ, Braunschweig, Germany). Stocks of these bacteria were grown overnight in Luria-Bertani (LB) medium on a shaker at room temperature.
(§2) To determine if the inhibitors had any direct impact on the growth of entomopathogenic bacteria prior to their administration in vivo, cultures of each bacterium were inoculated into LB medium and individual inhibitors were added to the cultures at a final concentration of 10 μg/mL. Cultures containing equal volumes of DMSO diluent served as controls. After shaking overnight at room temperature, growth of bacteria in the presence of inhibitors was quantified by measuring optical density of the cultures at 600 nm (OD600) on a spectrophotomer. OD600 values of cultures containing inhibitors were then normalized to DMSO controls. Three replicates were conducted with each inhibitor and growth was compared to controls (set at 1) using a one-sample t-test.

Cimex lectularius [1] = assay: Three-day survivorship of bed bugs fed P. entomophila alone or combined with NF-kB signaling inhibitors; assay type: in vivo; conditions: for effect on mortality during P. entomophila infection: 10 μg/mL inhibitor in blood meal with P. entomophila, three days, relative to bacterium alone; for mortality at 10 µg/mL: Cimex lectularius, P. entomophila combined with 10 μg/mL inhibitor in blood meal
Description: (§3) For the following non-limiting Examples, the Cincinnati SRL strain of Cimex lectularius was used for the population of bed bugs. This strain was derived from a population of individuals collected by technicians from Sierra Research Laboratories, Inc. (Modesto, Calif.) in 2007 and has been maintained under laboratory conditions since this time. Colonies were maintained at the University of South Dakota in plastic jars containing corrugated cardboard harborages at 28 +/−1° C. and 60-70% relative humidity on a 12:12 photoperiod. The colonies were fed aseptically collected defibrinated rabbit blood (Hemostat Laboratories, Dixon, Calif.) once per week using an artificial membrane system (Hemotek Ltd., Blackburn, United Kingdom).
The effect of the combination treatment of NF-kB signaling inhibitors and bacterial entomopathogens on bed bug resistance to the bacterial entomopathogens was analyzed. To determine if NF-kB signaling inhibitors could reduce resistance to orally provisioned entomopathogenic bacteria, cultures of each bacterium were grown overnight by shaking at room temperature. The following day, cultures of P. entomophila were standardized to an OD600 value of 2.3 (3×10^8 colony forming units/mL) and cultures of B. thuringiensis isralensis were standardized to an OD600 value of 2.2 (7×10^7 colony forming units/mL), based on their overnight growth across replicates. P. entomophila was then further diluted 1:100 in defibrinated rabbit blood, whereas B. thuringiensis israelensis was further diluted 1:50 in defibrinated rabbit blood due to its generally lower virulence. The evaluated inhibitors or DMSO diluent were added to the blood meal containing diluted bacteria to a final concentration of 10 ug/mL. The groups of bed bugs fed DMSO diluent in blood were included as controls. Groups of bed bugs consisting of roughly even numbers of adult male and female bed bugs that had not blood fed for at least seven days were provided access to treated blood meals using the artificial membrane system (Hemotek Ltd.) until fully engorged. Short-term mortality was then monitored over a period of three days. Three independent biological replicates with 10-14 insects per group were carried out and cumulative survival curves were compared using the Gehan-Breslow-Wilcoxon test.

[2] = system: Bacillus thuringiensis israelensis; assay: Direct effects of NF-kB signaling inhibitors on growth of B. thuringiensis israelensis cultures (OD600); assay type: cell-based; conditions: 10 μg/mL; LB medium; shaken overnight at room temperature
Description: as §1, §2

Cimex lectularius [3] = assay: Three-day survivorship of bed bugs fed NF-kB signaling inhibitors combined with B. thuringiensis israelensis; assay type: in vivo; conditions: 10 μg/mL inhibitor in blood meal with bacteria; three days; Gehan-Breslow test p=0.86
Description: as §3
The effect of the combination treatment of NF-kB signaling inhibitors and bacterial entomopathogens on bed bug resistance to the bacterial entomopathogens was analyzed. To determine if NF-kB signaling inhibitors could reduce resistance to orally provisioned entomopathogenic bacteria, cultures of each bacterium were grown overnight by shaking at room temperature. […] The evaluated inhibitors or DMSO diluent were added to the blood meal containing diluted bacteria to a final concentration of 10 ug/mL. […] Short-term mortality was then monitored over a period of three days. […]

Cimex lectularius [4] = assay: Toxicity of NF-kB signaling inhibitors fed as lone agents to bed bugs (seven-day survivorship); assay type: in vivo; conditions: 5 μg/mL or 10 μg/mL in blood meal; 7 days; chi-square test p=0.54
Description: as §3
The bed bugs were fed four individual small molecule inhibitors of NF-kB signaling (BMS345541, IKK16, IMD0354, Takinib) alone or in combination with two different bacterial entomopathogens (Pseudomonas entomophila and Bacillus thuringiensis israelensis). […] The effects on both bed bug mortality and bacterial growth were assessed.
The toxicity of NF-kB signaling inhibitors was analyzed by feeding the inhibitors as lone agents to bed bugs. In particular, the four individual small molecule inhibitors of NF-kB signaling (BMS345541, IKK16, IMD0354, Takinib) were analyzed. […] Mortality was then monitored regularly over a period of seven days. […]

Rhodnius prolixus = conditions: cited from earlier work
Cimex lectularius [5] = assay: Estimation of P. entomophila load in vivo in bed bugs (CFU/insect); conditions: 10 μg/mL inhibitor with P. entomophila in blood meal, 24 hours post-infection
Description: The bacterial load of entomopathogen was further analyzed to determine whether enhanced mortality during P. entomophila infection was associated with increased bacterial load (reduced resistance). For this analysis, adult male bed bugs that had not fed for at least seven days were provided access to blood meals containing P. entomophila with or without 10 μg/mL of IKK16 using the artificial membrane system (Hemotek Ltd.) until fully engorged. The two treatments were prepared as described in Example 3. After 24 hours, live and dead bed bugs from each infected treatment group were collected. Individual insects were surface sterilized by rinsing with 10% bleach and 70% ethanol and homogenized in sterile phosphate buffered saline (PBS). Homogenates were then serial diluted in PBS and plated on LB agar plates to estimate the load of P. entomophila bacteria expressed as colony forming units (CFU) per insect after 24 hours of incubation at 28° C. Because culturable bed bug commensals in the gut are minimal and slow growing, this methodology allows for the specific quantification of P. entomophila. Two independent biological replicates were conducted (15 individual insects examined per treatment group in total). The insects in each treatment were further subdivided into dead and live categories for analysis. […]

Cc1ccc2nc(NCCN)c3ncc(C)n3c2c1 [BMS345541, N1-(1,8-dimethylimidazo[1,2-a]quinoxalin-4-yl)ethane-1,2-diamine]
growth of P. entomophila relative to DMSO control (OD600) (Pseudomonas entomophila): did not affect the growth | effect on mortality during P. entomophila infection (Cimex lectularius [1]): little to no effect | growth of B. thuringiensis israelensis relative to DMSO control (OD600) [2]: did not affect the growth | effect on mortality during infection with B. thuringiensis (Cimex lectularius [3]): little to no effect

O=C(Nc1cc(C(F)(F)F)cc(C(F)(F)F)c1)c1cc(Cl)ccc1O [IMD0354, N-(3,5-bis(trifluoromethyl)phenyl)-5-chloro-2-hydroxybenzamide]
direct toxicity to bed bugs (mortality relative to DMSO controls) (Cimex lectularius [4]): not directly toxic | growth of P. entomophila relative to DMSO control (OD600) (Pseudomonas entomophila): inhibited the growth | growth of B. thuringiensis israelensis relative to DMSO control (OD600) [2]: inhibited the growth | expression of antimicrobial peptides (Rhodnius prolixus): suppressed expression | mortality during both bacterial and parasitic infections (Rhodnius prolixus): increased mortality

O=C(c1ccc(Nc2nccc(-c3cc4ccccc4s3)n2)cc1)N1CCC(N2CCCC2)CC1 [IKK16, (4-((4-(Benzo[b]thiophen-2-yl)pyrimidin-2-yl)amino)phenyl)(4-(pyrrolidin-1-yl)piperidin-1-yl)methanone]
growth of P. entomophila relative to DMSO control (OD600) (Pseudomonas entomophila): did not affect the growth | effect on mortality during P. entomophila infection (Cimex lectularius [1]): significantly increased | mortality at 10 µg/mL (Cimex lectularius [1]; 24 h, read-out: mortality at day 1): 74.3% | mortality at 10 µg/mL (Cimex lectularius [1]; 48 h, read-out: mortality at day 2): 80% | mortality at 10 µg/mL (Cimex lectularius [1]; 72 h, read-out: mortality at day 3): 82.9% | growth of B. thuringiensis israelensis relative to DMSO control (OD600) [2]: inhibited the growth | effect on tolerance (mortality with lower bacterial loads) in vivo (Cimex lectularius [5]): did not affect tolerance | P. entomophila load in live bed bugs versus live counterparts not treated with the inhibitor (Cimex lectularius [5]; ANOVA p=0.021): higher loads

CCCn1/c(=N/C(=O)c2cccc(C(N)=O)c2)[nH]c2ccccc21 [Takinib, 3-N-(1-propylbenzimidazol-2-yl)benzene-1,3-dicarboxamide]
growth of P. entomophila relative to DMSO control (OD600) (Pseudomonas entomophila): did not affect the growth | effect on mortality during P. entomophila infection (Cimex lectularius [1]): little to no effect | growth of B. thuringiensis israelensis relative to DMSO control (OD600) [2]: did not affect the growth | effect on mortality during infection with B. thuringiensis (Cimex lectularius [3]): little to no effect
